Data from US20080306047A1, “Use of Aza-Phenylalanine Compounds For Treating Cardiac Arrhythmia” (priority 2005, published 2008).

Legend:
[1] = system: isolated rat hearts; test: Reperfusion-induced arrhythmia in isolated rat hearts (Langendorff), 25-min global no-flow ischemia, 30 min reperfusion; parameters: species or system Wistar rats; conditions: 1 μM and 10 μM (+DMSO 500 μL/L), n=12
Protocol: Hearts from male Wistar rats (300-370 g) anesthetized with diethyl-ether inhalation were perfused with Krebs-Henseleit buffer at 37° C. gassed with carbogen in Langendorff mode as described (Onody A et al., Cardiovasc Res. 2003, 58: 663-670). After an initial 15 min aerobic, normothermic perfusion period, hearts are subjected to 25-min of global, no-flow, normothermic ischemia, followed by 30 min normoxic, normothermic reperfusion. Measured parameters were heart rate and incidence of reperfusion-induced ventricular fibrillation (VF) and ventricular tachycardia (VT). Epicardial electrocardiogram was recorded throughout the experimental protocol to determine heart rate, VF and VT according to the Lambeth conventions (Walker et al., Cardiovasc Res. 1988; 22: 447-455) as described (Csonka et al., 2003; J Cardiovasc Pharmacol 41: 916-922; Ferdinandy et al., Cardiovasc Res. 1995; 58: 663-670.). Recording and evaluation of the ECG was performed using the SPEL Advanced Isosys system (Experimetria Ltd, Budapest, Hungary). Experimental groups were designed as follows: control, solvent (DMSO 500 μL/L), compound of formula IV at 1 μM (+DMSO 500 μL/L), compound of formula IV at 10 μM (+DMSO 500 μL/L), positive control: nifedipine at 0.5 μM (+DMSO 500 μL/L). Animals were randomly assigned to the different groups, however, perfusions were done in 4 parallel experiments within a group (n=12 in each group). The perfusion medium contained the drugs throughout the entire perfusion protocol in the treated groups. HR was compared to the solvent-treated group using ANOVA followed by Dunn's test. The incidence of VF and VT were compared with Chi^2 test in all groups, than each group was compared to the solvent-treated group using the Fischer's exact test.
Compound of formula IV was tested at 10 μM (Compound of formula IV, 10 μM) and 1 μM (Compound of formula IV, 1 μM), nifedipine was tested at 0.5 μM. Chi^2 test followed by the Fischer's exact test. * p<0.05; ** p<0.01; ## p<0.01 (all groups compared to DMSO group)

[2] = system: isolated rat hearts; test: Reperfusion-induced arrhythmia in isolated rat hearts (Langendorff) subjected to 40-min global ischemia; parameters: species or system Wistar rats; conditions: 40-min ischemia, 50 min reperfusion, drug 1 μM in K-H solution, mean ± SEM
Protocol: Wistar rats (230-330 g) are anaesthetized by intraperitoneal injection of urethane (0.7 ml 20% w/v solution/100 g body weight), followed by intraperitoneal injection of heparin (2500 IU/rat). Having opened the thorax a cannula filled with cold Krebs-Henseleit (K-H) solution is inserted into the ascending aorta. After that the heart is excised, it is connected to Langendorff's apparatus and perfused with K-H solution (K-H solution, in mM: 118.6 NaCl; 4.7 KCl; 11.1 glucose; 25 NaHCO3; 1.66 MgSO4; 1.2 NaH2PO4, 2.52 […]; pH=7.4) under constant pressure (60 cm H2O). Prior to use, the K-H perfusion solution is passed through a cellulose acetate filter (pore size 5 μm) to remove any particulate impurities. The perfusion solution is kept at 38.5° C. and gassed with 95% O2 and 5% CO2. Two silver (AgCl) electrodes are set on the surface of the heart in the direction of electrical axis of the heart for recording electrocardiogram. Electrodes are placed on the heart in such a position that a sufficient amplitude of P wave and QRS complex is obtained. The following experimental groups are studied: 1) isolated hearts are perfused with oxygenated K-H solution for 30 min followed by 40 min of global ischemia and followed by 50 min of reperfusion with oxygenated K-H solution; 2) isolated hearts are perfused with oxygenated K-H solution for 20 min, followed by 10 min perfusion with experimental drug dissolved in K-H and then the hearts are exposed to 40 min of global ischemia followed by 50 min reperfusion with experimental drug dissolved in K-H. The used experimental drugs are compounds of formulae IV, V and VI as defined above. As a positive control direct thrombin inhibitor argatroban and low molecular weight heparin nadroparin are used. The hearts are monitored for the duration of proarrhythmic events according to the Lambeth convention (Walker et al., Cardiovascular Res 1988; 22: 447-455). Lactate dehydrogenase (LDH) release rate is determined spectophotometrically (Wroblevski & LaDue, Proc Exp Biol Med 1955; 90: 210-213) in the coronary effluent and is expressed in μkat per minute and per weight of the heart (Grasic Kuhar et al. Eur J Pharmacol 2004; 488: 137-46).

SMILES	incidence of reperfusion-induced ventricular fibrillation (VF) ([1]; compared to DMSO group)	incidence of reperfusion-induced ventricular tachycardia (VT) ([1]; compared to DMSO group)	heart rate (HR) ([1]; compared to solvent-treated group)	Duration VF (ventricular fibrillation) [2] [s]	Duration VT (ventricular tachycardia) [2] [s]	Duration of all proarrhythmic events (VT, VF, extrasystolia and asystolia) [2] [s]
N=C(N)c1cccc(CN(NS(=O)(=O)c2ccc3ccccc3c2)C(=O)N2CCCCCC2)c1 [Compound IV]	concentration-dependently decreased	not significantly changed	not significantly changed	78.6 ± 42.6	87.2 ± 53.3	353.3 ± 148.1
N/C(=N\O)c1cccc(CN(NS(=O)(=O)c2ccc3ccccc3c2)C(=O)N2CCCCCC2)c1 [Compound V]	–	–	–	149.3 ± 86.4	60.0 ± 30.8	278.3 ± 104.2
N=C(N)c1cccc(CN(NS(=O)(=O)Cc2ccccc2F)C(=O)N2CCCCCC2)c1 [Compound VI]	–	–	–	596.0 ± 469.4	99.5 ± 77.95	810.2 ± 461.4
CC1CNc2c(cccc2S(=O)(=O)N[C@@H](CCCNC(=N)N)C(=O)N2CC[C@@H](C)C[C@@H]2C(=O)O)C1 (stereo partly drawn) [Argatroban, argatroban, reference compound]	–	–	–	583.6 ± 228.6	828.7 ± 233.7	1731.0 ± 445.0
